Article PMC10791743, “Selective CK1α degraders exert antiproliferative activity against a broad range of human cancer cell lines” (Nature Communications, 2024)
Several values for one entry are separate records, joined by “and”; a condition that tells them apart may be missing. Equal entries are not always repeated. Where two headings read alike, the source gives them in different places. Each block holds one compound with its values, some of them ahead of it.

What was measured:
CRBN = target: T1, CRBN (Homo sapiens, UniProt Q96SW2); assay: CRBN fluorescence polarization (FP) displacement assay; assay type: binding; parameters: key: % activity normalized to DMSO (0) and CC-220 (100) controls
T1 construct: 6XHis (N)
T1 sequence (Q96SW2 whole entry): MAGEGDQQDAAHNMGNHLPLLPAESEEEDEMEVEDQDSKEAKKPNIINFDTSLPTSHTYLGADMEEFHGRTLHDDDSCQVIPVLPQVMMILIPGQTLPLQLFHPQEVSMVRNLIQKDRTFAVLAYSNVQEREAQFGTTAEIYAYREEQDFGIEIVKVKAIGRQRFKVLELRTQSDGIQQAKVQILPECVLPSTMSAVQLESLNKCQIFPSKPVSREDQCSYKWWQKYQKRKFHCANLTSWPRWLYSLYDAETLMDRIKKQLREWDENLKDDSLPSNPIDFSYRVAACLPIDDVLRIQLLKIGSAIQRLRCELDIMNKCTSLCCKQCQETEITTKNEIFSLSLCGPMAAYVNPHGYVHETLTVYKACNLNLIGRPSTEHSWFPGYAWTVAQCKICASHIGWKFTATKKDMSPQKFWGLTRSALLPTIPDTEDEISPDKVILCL
T1 sequence (Q16531 whole entry partner): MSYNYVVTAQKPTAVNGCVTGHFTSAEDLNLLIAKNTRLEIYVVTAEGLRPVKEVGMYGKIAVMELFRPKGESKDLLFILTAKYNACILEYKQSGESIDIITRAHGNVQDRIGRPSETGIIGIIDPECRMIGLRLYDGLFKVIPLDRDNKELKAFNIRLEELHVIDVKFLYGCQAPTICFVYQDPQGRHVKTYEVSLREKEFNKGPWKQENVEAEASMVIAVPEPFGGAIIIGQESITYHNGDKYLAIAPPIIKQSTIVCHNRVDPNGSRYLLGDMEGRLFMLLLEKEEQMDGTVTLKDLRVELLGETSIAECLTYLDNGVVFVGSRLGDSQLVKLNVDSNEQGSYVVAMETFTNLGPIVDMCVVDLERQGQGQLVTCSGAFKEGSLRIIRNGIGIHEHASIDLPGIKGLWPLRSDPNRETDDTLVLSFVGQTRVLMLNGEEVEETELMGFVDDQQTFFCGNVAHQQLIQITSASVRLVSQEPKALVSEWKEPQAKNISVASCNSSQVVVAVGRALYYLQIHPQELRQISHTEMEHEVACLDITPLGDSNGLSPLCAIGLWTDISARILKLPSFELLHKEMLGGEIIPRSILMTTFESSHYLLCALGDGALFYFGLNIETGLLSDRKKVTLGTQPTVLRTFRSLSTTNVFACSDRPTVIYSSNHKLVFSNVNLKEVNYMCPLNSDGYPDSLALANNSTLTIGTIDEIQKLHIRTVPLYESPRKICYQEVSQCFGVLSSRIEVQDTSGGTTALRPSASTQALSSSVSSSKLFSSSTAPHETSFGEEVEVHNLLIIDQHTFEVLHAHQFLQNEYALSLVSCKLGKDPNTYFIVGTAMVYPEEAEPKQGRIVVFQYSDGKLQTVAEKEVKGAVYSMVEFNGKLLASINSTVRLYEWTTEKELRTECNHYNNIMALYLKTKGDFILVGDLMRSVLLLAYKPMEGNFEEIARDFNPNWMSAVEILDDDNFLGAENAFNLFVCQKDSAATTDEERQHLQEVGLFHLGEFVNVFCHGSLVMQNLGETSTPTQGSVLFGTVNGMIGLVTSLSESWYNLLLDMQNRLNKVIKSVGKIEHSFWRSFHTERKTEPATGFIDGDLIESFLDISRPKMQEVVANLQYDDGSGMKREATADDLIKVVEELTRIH
Method: The assay cocktail was prepared by combining 6XHis-CRBN-DDB1 protein (200 nM) and Cy5-O-Len probe (30 nM) in 20 mM HEPES pH 7, 150 mM NaCl, 0.005% Tween-20 assay buffer. […] Then 20 μL of the assay cocktail was dispensed to wells of the assay plate with a Multidrop Combi Reagent Dispenser (Thermo Fisher Scientific, USA). The plates were incubated in the dark for 1 h at room temperature and then read on an Envision plate reader (Perkin Elmer, USA). Raw intensity values for each compound at each concentration were normalized to obtain % activity using the following equation: 100×[(mean(negctrl)–compound)/(mean (negctrl)–mean (posctrl))], and then pooled from replicate experiments prior to fitting. Here, negctrl and posctrl refer to the negative (DMSO) and positive controls (CC-220) on each plate. Dose-response curves were fit to the Hill equation using the GraphPad Prism (version 10).

MOLM-13 cells = assay: MOLM-13 cell viability assay (CTG, 72 h); assay type: cell-based, human; parameters: key to Cell viability in MOLM-13 cells / cell viability, dose-response replicate values: % viability = 100 − % activity, normalized to controls; settings: for Effect on MOLM-13 cell viability (cytotoxicity) / IC50: CTG 72 h; for IC50: Homo sapiens, MOLM-13, read-out: IC50, MOLM-13 cell growth/viability
Method: The primary screen was performed in 384-well format using the CellTiter Glo (CTG) luminescent cell viability assay (Promega) as previously described. […] After overnight incubation at 37 °C in a humidified 5% CO2 incubator, cells were treated with compounds in dose–response format using a Pintool on a Biomek FX^P Laboratory Automation Workstation (Beckman Coulter). […] Luminescence signal was measured using an EnVision plate reader (PerkinElmer). […]
number per well and incubated overnight at 37 °C in a humidified 5 % CO2 incubator. Compounds were transferred to the assay plate from a dose-response plate using a Labcyte Echo 650 Acoustic Liquid Handler (Beckman Coulter , USA). […]
using Promega’s CellTiter-Glo reagent according to the manufacturer’s recommendation.
Luminescence was measured on the Envision plate reader (PerkinElmer, USA). Raw luminescence relative light unit (RLU) values for each compound at each concentration were normalized to obtain % activity using the following equation (1): 100 × [(mean(negctrl) – compound)/(mean (negctrl) – mean (posctrl))]. The % activity was converted to % viability using the following equation (2):
(100 – % activity), and then pooled from replicate experiments prior to fitting. Here, negctrl and posctrl refer to the negative (DMSO) and positive controls (staurosporine) on each plate. Dose-response curves were fit to the Hill equation using the GraphPad Prism (version 10). […]

IKZF1 = target: T2, IKZF1 (Homo sapiens, UniProt Q13422+Q96SW2); assay: IKZF1 HiBiT live-cell kinetic degradation assay (Jurkat cells); assay type: cell-based
T2 construct: engineered by CRISPR/Cas9 to express endogenous IKZF1 (Jurkat cells) with a HiBiT tag
T2 sequence (Q13422 whole entry): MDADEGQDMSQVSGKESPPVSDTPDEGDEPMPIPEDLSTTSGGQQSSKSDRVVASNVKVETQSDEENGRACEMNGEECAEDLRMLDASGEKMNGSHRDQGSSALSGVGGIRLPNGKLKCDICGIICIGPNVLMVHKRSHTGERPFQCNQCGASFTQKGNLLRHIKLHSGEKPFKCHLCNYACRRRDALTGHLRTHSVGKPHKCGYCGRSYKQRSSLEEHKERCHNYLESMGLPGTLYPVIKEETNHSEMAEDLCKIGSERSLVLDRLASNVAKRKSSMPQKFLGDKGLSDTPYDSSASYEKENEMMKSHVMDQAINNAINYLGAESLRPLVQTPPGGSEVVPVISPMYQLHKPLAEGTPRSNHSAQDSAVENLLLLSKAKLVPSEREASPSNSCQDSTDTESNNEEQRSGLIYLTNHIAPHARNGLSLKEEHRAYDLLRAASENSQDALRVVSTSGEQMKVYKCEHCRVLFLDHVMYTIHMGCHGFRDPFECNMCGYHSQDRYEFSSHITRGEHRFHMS
T2 sequence (Q96SW2 whole entry): as the sequence (Q96SW2 whole entry) above
T2 sequence (Q16531 whole entry partner): as the sequence (Q16531 whole entry partner) above
Description: To measure cellular protein levels, we used cell lines that have been engineered by CRISPR/Cas9 to express endogenous CK1α (HEK293 cells) or IKZF1 (Jurkat cells) with a HiBiT tag, which when coupled with LgBiT expression forms NanoBiT, a bioluminescent protein that can be used for kinetic studies of protein degradation. […] Cell viability was also monitored with CellTiter Glo 2.0 (Promega) at the completion of the experiment to ensure that loss of protein was not a consequence of a loss of cell viability.
IKZF1-HiBiT Jurkat LgBiT stable cells were seeded at 60,000 cells/well in 50% growth media/50% CO2 independent medium supplemented with 10% FBS and 1× Endurazine substrate. […] A dose–response curve was generated by performing 3-fold dilutions of each compound including a DMSO-only control in growth media. For live cell kinetic degradation assays, diluted compounds were added to CK1α and β-catenin plates and placed in a GloMax Discover (Promega, Cat. #GM3000) preheated to 37 °C or added to IKZF1 plates and placed in a CLARIOstar Plus (BMG LABTECH) preheated to 37 °C.
Relative protein level was determined based on normalization to the DMSO control and reported at Fractional RLUs. Degradation rate and degradation maximums were calculated from Fractional RLUs as previously described[38] using GraphPad Prism software. β-catenin stabilization time of onset for each concentration curve was calculated in GraphPad Prism by fitting an unconstrained plateau followed by one phase association model using the equation below (Y = IF(X < X0, Y0,Y0+(Plateau−Y0)*(1−exp(−K*(X−X0))))). The parameter, X0 was used as time of onset for each compound concentration.

[1] = Jurkat, 10 µM, over 24 h, read-out: IKZF1 Dmax (HiBiT)
[2] = Jurkat, 0.111 uM, read-out: IKZF1 Percent Maximum Degradation

SMILES: O=C1CCC(N2Cc3cc(Nc4noc5ccccc45)ccc3C2=O)C(=O)N1 (stereo not shown) [SJ3149]
CRBN binding FP, Activity (CRBN; SJ3149, [Compound] 0.25625 mM): 17.1311 and 16.8724 and 13.6243 | CRBN binding FP, Activity (CRBN; SJ3149, [Compound] 0.76875 mM): 34.3137 and 35.3073 and 29.4577 | CRBN binding FP, Activity (CRBN; SJ3149, [Compound] 2.31250 mM): 56.4886 and 56.6964 and 54.8148 | CRBN binding FP, Activity (CRBN; SJ3149, [Compound] 6.93750 mM): 75.4128 and 74.3041 and 71.3624 | CRBN binding FP, Activity (CRBN; SJ3149, [Compound] 20.81250 mM): 81.1017 and 84.4669 and 74.3386 | CRBN binding FP, Activity (CRBN; SJ3149, [Compound] 62.50000 mM): 71.4654 and 75.3676 and 66.9577 | Effect on MOLM-13 cell viability (cytotoxicity) (MOLM-13 cells): more robust effect on the viability of MOLM-13 cells | IC50 (MOLM-13 cells): 13 nM | Cell viability in MOLM-13 cells (MOLM-13 cells; SJ3149 series, Conc 0.000508): 101.693 and 103.275 and 101.343 | Cell viability in MOLM-13 cells (MOLM-13 cells; SJ3149 series, Conc 0.00152416): 101.046 and 101.638 and 102.894 | Cell viability in MOLM-13 cells (MOLM-13 cells; SJ3149 series, Conc 0.00457247): 93.8551 and 92.4498 and 91.2385 | Cell viability in MOLM-13 cells (MOLM-13 cells; SJ3149 series, Conc 0.0137174): 62.1406 and 65.1592 and 63.0989 | Cell viability in MOLM-13 cells (MOLM-13 cells; SJ3149 series, Conc 0.0411523): 25.3582 and 28.4617 and 24.9569 | Cell viability in MOLM-13 cells (MOLM-13 cells; SJ3149 series, Conc 0.123457): 6.148 and 8.382 and 8.141 | Cell viability in MOLM-13 cells (MOLM-13 cells; SJ3149 series, Conc 0.37037): 3.25 and 4.028 and 3.791 | Cell viability in MOLM-13 cells (MOLM-13 cells; SJ3149 series, Conc 1.11111): 2.026 and 2.1314 and 2.9156 | Cell viability in MOLM-13 cells (MOLM-13 cells; SJ3149 series, Conc 3.33333): 1.946 and 1.78 and 2.069 | Cell viability in MOLM-13 cells (MOLM-13 cells; SJ3149 series, Conc 10): 0.7978 and 0.8668 and 1.097 | IKZF1 Percent Maximum Degradation (IKZF1; 10 uM, replicates): 11.66% and -2.50% and 4.13% and 1.42% | Dmax at 10 µM (IKZF1; [1]): < 10%

CRBN binding FP, Activity (CRBN; SJ7095, [Compound] 0.00309 mM): 8.11 and 10.4932 and 6.274 | CRBN binding FP, Activity (CRBN; SJ7095, [Compound] 0.02781 mM): 14.0709 and 18.2061 and 13.5714 | CRBN binding FP, Activity (CRBN; SJ7095, [Compound] 0.08344 mM): 25.188 and 27.6328 and 27.8185 | CRBN binding FP, Activity (CRBN; SJ7095, [Compound] 0.25033 mM): 29.8604 and 33.1175 and 27.1236 | CRBN binding FP, Activity (CRBN; SJ7095, [Compound] 0.75100 mM): 30.8271 and 30.718 and 33.0309 | CRBN binding FP, Activity (CRBN; SJ7095, [Compound] 2.25301 mM): 46.2943 and 45.8008 and 46.583 | CRBN binding FP, Activity (CRBN; SJ7095, [Compound] 6.75903 mM): 54.5113 and 62.5976 and 51.6216 | CRBN binding FP, Activity (CRBN; SJ7095, [Compound] 20.27708 mM): 59.0226 and 67.7395 and 53.7066 | IKZF1 Percent Maximum Degradation (IKZF1; 0.111 uM): 51.56% and 53.98% and 57.51% | IKZF1 Percent Maximum Degradation (IKZF1; 0.333 uM): 65.57% and 67.60% and 69.65% | IKZF1 Percent Maximum Degradation (IKZF1; 1 uM): 74.04% and 75.26% and 77.24% | IKZF1 Percent Maximum Degradation (IKZF1; 3 uM): 79.22% and 78.05% and 80.15% | IKZF1 Percent Maximum Degradation (IKZF1; 10 uM, replicates): 80.57% and 81.85% and 92.17% | Dmax at 0.111 µM (IKZF1; [2]): 51.7% | Dmax at 0.333 µM (IKZF1; Jurkat, 0.333 uM, read-out: IKZF1 Percent Maximum Degradation): 64.8% | Dmax at 1 µM (IKZF1; Jurkat, 1 uM, read-out: IKZF1 Percent Maximum Degradation): 73.8% | Dmax at 3 µM (IKZF1; Jurkat, 3 uM, read-out: IKZF1 Percent Maximum Degradation): 78.4% | Dmax at 10 µM (IKZF1; Jurkat, 10 uM, replicates, read-out: IKZF1 Percent Maximum Degradation): 80% | DC50 (IKZF1; Jurkat, at 4 h): 69 nM
SMILES: O=C1CCC(N2Cc3c(CNC(=O)c4ccc(F)cc4)cccc3C2=O)C(=O)N1 (stereo not shown) [SJ7095]
Effect on MOLM-13 cell viability (cytotoxicity) (MOLM-13 cells): high toxicity against MOLM-13 cells | IC50 (MOLM-13 cells): 71 nM | Cell viability in MOLM-13 cells (MOLM-13 cells; SJ7095 series, Conc 0.00049449): 80.5902 and 73.7069 and 73.7893 | Cell viability in MOLM-13 cells (MOLM-13 cells; SJ7095 series, Conc 0.00148346): 82.2036 and 73.2259 and 66.8432 | Cell viability in MOLM-13 cells (MOLM-13 cells; SJ7095 series, Conc 0.00445039): 62.2665 and 53.3724 and 60.8209 | Cell viability in MOLM-13 cells (MOLM-13 cells; SJ7095 series, Conc 0.0133512): 41.9606 and 38.8721 and 37.6352 | Cell viability in MOLM-13 cells (MOLM-13 cells; SJ7095 series, Conc 0.0400535): 36.9208 and 28.2407 and 35.9101 | Cell viability in MOLM-13 cells (MOLM-13 cells; SJ7095 series, Conc 0.12016): 28.8773 and 35.0792 and 25.4306 | Cell viability in MOLM-13 cells (MOLM-13 cells; SJ7095 series, Conc 0.360481): 19.8758 and 18.9138 and 19.7816 | Cell viability in MOLM-13 cells (MOLM-13 cells; SJ7095 series, Conc 1.08144): 22.2039 and 16.4235 and 15.6504 | Cell viability in MOLM-13 cells (MOLM-13 cells; SJ7095 series, Conc 3.24433): 17.3048 and 13.4196 and 15.362 | Cell viability in MOLM-13 cells (MOLM-13 cells; SJ7095 series, Conc 9.733 (unit not given), replicates): 7.49 and 6.672 and 5.493

CRBN binding FP, Activity (CRBN; SJ10040, [Compound] 2.71597 mM): 47.7349 and 37.554 and 42.475 | CRBN binding FP, Activity (CRBN; SJ10040, [Compound] 8.14792 mM): 56.459 and 48.508 and 56.8103 | CRBN binding FP, Activity (CRBN; SJ10040, [Compound] 24.44375 mM): 60.7319 and 59.4621 and 64.1617 | CRBN binding FP, Activity (CRBN; SJ10040, [Compound] 73.33125 mM): 69.456 and 67.5893 and 79.2322 | IKZF1 Percent Maximum Degradation (IKZF1; 10 uM, replicates, listed as SJ10040): -2.54% and -2.18% and 5.17% and -2.35% | Dmax at 0.111 µM (IKZF1; [2]): 0% | Dmax at 10 µM (IKZF1; [1]): < 10%
SMILES: Cc1cccc(C(=O)Nc2ccc3c(c2)CN(C2CCC(=O)NC2=O)C3=O)c1 (stereo not shown) [SJ0040]
Cell viability in MOLM-13 cells (MOLM-13 cells; SJ0040 series, Conc 0.000596098): 72.251 and 62.2023 and 81.3879 | Cell viability in MOLM-13 cells (MOLM-13 cells; SJ0040 series, Conc 0.0017883): 82.0109 and 75.8813 and 72.6272 | Cell viability in MOLM-13 cells (MOLM-13 cells; SJ0040 series, Conc 0.00536488): 61.7374 and 60.0676 and 62.6116 | Cell viability in MOLM-13 cells (MOLM-13 cells; SJ0040 series, Conc 0.0160947): 47.3097 and 40.7507 and 48.8062 | Cell viability in MOLM-13 cells (MOLM-13 cells; SJ0040 series, Conc 0.048284): 27.7074 and 26.3493 and 30.1451 | Cell viability in MOLM-13 cells (MOLM-13 cells; SJ0040 series, Conc 0.144852): 14.8484 and 15.2529 and 14.8047 | Cell viability in MOLM-13 cells (MOLM-13 cells; SJ0040 series, Conc 0.434556): 9.851 and 9.013 and 9.549 | Cell viability in MOLM-13 cells (MOLM-13 cells; SJ0040 series, Conc 1.30367): 6.737 and 6.253 and 6.807 | Cell viability in MOLM-13 cells (MOLM-13 cells; SJ0040 series, Conc 3.911): 4.756 and 5.128 and 7.933
